# Reference: paper PMC5697189 (Journal of Veterinary Internal Medicine, 2017)
# Like-named read-outs stand apart in the source and are kept apart here.
# Assays:
# [1] = system: recombinant canine GSTT5 (reference); experiment: spectrophotometric glutathione conjugation assay, Michaelis-Menten fit; assay type: biochemical, Canis lupus familiaris; conditions: co-substrate glutathione (5 mM); pH and temperature not stated
# [2] = system: recombinant canine GSTT5 (reference); conditions: co-substrate glutathione (5 mM); pH and temperature not stated
smiles,measurement,setting,value
"O=[N+]([O-])c1ccc(Cl)c(Cl)c1 [1,2-dichloro-4-nitrobenzene, 1,2‐dichloro‐4‐nitrobenzene]",Km,[1],168 ± 27 µM
same,Km,[2],164 ± 22 µM
